The subject of this assay is patient derived xenografts (PDX) from localized breast cancer tumors. In words: Drug response of breast cancer patient derived xenografts (complete vs non/incomplete response). The format is in vivo. To be noted: breast cancer PDX library; AC tested on 37 PDXs, Olaparib on 33 PDXs. The procedure:
A library of 37 patient derived xenografts (PDX) from localized breast cancer tumors were assayed using RNA-seq to determine gene expression profiles and Exome-seq to detect somatic mutations. AC (a combination of the chemotherapies Adriamycin (doxorubicin) and cyclophosphamide) was tested on the 37 PDXs, and 33 were also treated using Olaparib (a PARP inhibitor). The responses of the PDX to the treatments are categorized into Complete Response and non/incomplete response. […] Thus, the complete response to Olaparib results in 28 False and 5 True samples. The complete response to AC results in 26 False and 11 True samples.

Molecules are shown by their SMILES.

Consider `O=C(c1cc(Cc2n[nH]c(=O)c3ccccc23)ccc1F)N1CCN(C(=O)C2CC2)CC1` [Olaparib], for which the “samples showing a complete response” value is listed as 5 samples and the “samples showing non- or partial responses” value was 28 samples.

(Values after US12603148B2, “Method for analysis of omics data” (Max-Delbrück-Centrum für Molekulare Medizin in der …, priority 2021, dated 2026).)
